Assay results published in US20080312306A1, “POLYMORPHS, SOLVATES, AND HYDRATE OF 5-(4'-FLUORO-2'-OXO-1',2'-DIHYDROSPIRO[CYCLOPROPANE-1,3'-INDOL]-5'-YL)-1-METHYL-1H-PYRROLE-2-CARBONITRILE” (Wyeth, priority 2007, published 2008).

Assays:
Type in all cases: physicochemical
[1] = Relative solubility of the crystallographic forms
Source text: (§1) The inventors found several advantages of these new forms of 5-(4′-fluoro-2′-oxo-1′,2′-dihydrospiro[cyclopropane-1,3′-indol]-5′-yl)-1-methyl-1H-pyrrole-2-carbonitrile. […] In yet a further embodiment, samples of the hydrate of 5-(4′-fluoro-2′-oxo-1′,2′-dihydrospiro[cyclopropane-1,3′-indol]-5′-yl)-1-methyl-1H-pyrrole-2-carbonitrile were hygroscopic.

[2] = Hygroscopicity / water content by dynamic vapor sorption (DVS)
Source text: as §1
The hydrate has a different structure of the crystal lattice of 5-(4′-fluoro-2′-oxo-1′,2′-dihydrospiro[cyclopropane-1,3′-indol]-5′-yl)-1-methyl-1H-pyrrole-2-carbonitrile from the Form I described in the art as determined by XRD and DSC. Specifically, the hydrate contains water in the crystal lattice. Specifically, as evidenced by dynamic vapor sorption (DVS), the hydrate contains about 2.5% to about 5% water. In one embodiment, the hydrate contains about 2.5% water at 0% relative humidity (RH).

[3] = Solid-form stability (thermodynamic stability, slurrying in solvent, water, micronization, vacuum)
Source text: as §1
The hydrate of 5-(4′-fluoro-2′-oxo-1′,2′-dihydrospiro[cyclopropane-1,3′-indol]-5′-yl)-1-methyl-1H-pyrrole-2-carbonitrile is also stable under a variety of conditions. In one example, the hydrate is stable in water. In another example, the hydrate is stable under conditions of micronization. In a further example, the hydrate is stable under a vacuum for a period of at least about 48 hours.

Row | solubility ([1]; compared with polymorph Form II) | hygroscopicity [2] | thermodynamic stability ([3]; compared with polymorph Form I) | conversion to other polymorphs ([3]; if slurried in a solvent) | water content (DVS) ([2]; at 0% relative humidity (RH)) | water content (DVS) ([2]; at 100% RH) | stability ([3]; in water) | period of stability under a vacuum ([3]; under a vacuum) | stability ([3]; under conditions of micronization) | SMILES | solubility ([1]; compared with other crystallographic forms)
1 | more soluble than polymorph Form II | – | – | – | – | – | – | – | – | Cn1c(C#N)ccc1-c1ccc2c(c1F)C1(CC1)C(=O)N2 [polymorph Form III, 5-(4′-fluoro-2′-oxo-1′,2′-dihydrospiro[cyclopropane-1,3′-indol]-5′-yl)-1-methyl-1H-pyrrole-2-carbonitrile] | more soluble than other crystallographic forms
2 | – | not hygroscopic | more thermodynamically stable | does not convert to other polymorphs | – | – | – | – | – | Cn1c(C#N)ccc1-c1ccc2c(c1F)C1(CC1)C(=O)N2 [polymorph Form II, 5-(4′-fluoro-2′-oxo-1′,2′-dihydrospiro[cyclopropane-1,3′-indol]-5′-yl)-1-methyl-1H-pyrrole-2-carbonitrile] | –
3 | – | hygroscopic | – | – | about 2.5% | about 4.75% | stable | at least 48 hours | stable | Cn1c(C#N)ccc1-c1ccc2c(c1F)C1(CC1)C(=O)N2 [hydrate, 5-(4′-fluoro-2′-oxo-1′,2′-dihydrospiro[cyclopropane-1,3′-indol]-5′-yl)-1-methyl-1H-pyrrole-2-carbonitrile] | –
